Drawing on US20240324599A1, “PESTICIDAL ENZYMES FOR USE ON NEMATODES, INSECTS, AND MOLLUSKS” (priority 2023, published 2024), this text covers Yield for one compound.

SMILES strings stand for the structures.

The assay concerns corn. Kind of assay: Field trial: esterase on urea with or without NBPT, corn yield. The assay is classed as in vivo. To be noted: corn, NBPT 64 fl oz/ton on Urea (135 lb/A Nitrogen), no EstA. The protocol:
Esterase A (EstA) from Bacillus subtilis (SEQ ID NO:254) was produced via fermentation of a recombinantly produced enzyme in Bacillus subtilis. 1, 2, or 3 fl oz of fermentation product was applied onto 135 lb N/A (nitrogen equivalent per acre) urea fertilizer in a concrete mixer, and allowed to mix for 1 minute. A urea control treatment without fermentation media was also created. An addition treatment that contained 64 fl oz/ton N-Butyl-thiophosphoric triamide (NBPT) nitrogen stabilizer or 64 fl oz/ton NBPT nitrogen stabilizer with 3 fl oz/A EstA fermentation product was also included in the trial. Urea, alone or with fermentation media was distributed across 4 small replicated plots each prior to planting of corn with 4 replicates of 400 ft2 each at each site.

Take `CCCCNP(N)(N)=S` [NBPT, N-Butyl-thiophosphoric triamide, reference compound]: the Yield stood at 191.2 Bu/A (base control 188.2) and 12022.3 Kg/ha (base control 11830.4).
